Laboratory results: patent US20220273757A1, “METHODS FOR ADMINISTERING ANGIOTENSIN II BY […] LEVELS” (La Jolla Pharma, LLC, priority 2019, published 2022)
“And” between values parts separate entries of the source, which are not always exact repeats. Equal entries are not always repeated.

Experiments:
Format in all cases: in vivo, human
serum renin = experiment: Serum renin concentration at baseline and hour 3 (DRG Renin ELISA), ATHOS-3 patients
Description: (§1) The Angiotensin II for the Treatment of High-Output Shock 3 (ATHOS-3) study has been previously described—NCT02338843. In brief, adults with vasodilatory shock despite volume resuscitation with ≥25 mL/kg and high-dose vasopressors (defined as a norepinephrine equivalent [NED] of greater than 0.2 mcg/kg/min) were randomly assigned 1:1 to receive synthetic human angiotensin II (La Jolla Pharmaceutical Company, San Diego, Calif.) or saline placebo plus standard vasopressors. Randomization was stratified according to MAP at screening and Acute Physiology and Chronic Health Evaluation II (APACHE II) score.
(§2) Study drug infusion started at 20 ng/kg/min and was adjusted during the first 3 hours to increase the MAP to ≥75 mm Hg while keeping other vasopressors constant. Thereafter, the study drug and other vasopressors were adjusted at the discretion of the treating ICU team to maintain a MAP between 65 and 75 mm Hg. At 48 hours, the infusion was discontinued according to a protocol-specified tapering process. However, continuation was allowed for up to 7 days at the discretion of the ICU team.
(§3) Serum concentrations of renin, angiotensin I, and angiotensin II were measured after randomization but prior to administration of the study drug and at 3 hours after initiation of study drug.
Serum renin was measured with the DRG Renin ELISA Kit (DRG Instruments GmbH, Marburg, Germany). The DRG ELISA Kit is a solid-phase enzyme-linked immunosorbent assay based on the sandwich principle. The microtiter wells are coated with a monoclonal (mouse) antibody directed toward a unique antigenic site of the human active renin molecule. An aliquot of patient sample containing endogenous renin is rapidly thawed in a water bath and incubated in the coated well together with assay buffer. After incubation, unbound components are washed off. Finally, enzyme conjugate, a monoclonal anti-renin antibody conjugated with horseradish peroxidase, is added. After incubation, unbound enzyme conjugate is washed off. The amount of bound peroxidase is proportional to the concentration of renin in the sample. Having added the substrate solution, the intensity of color developed is proportional to the concentration of active renin in the patient sample. Personnel who conducted the assays were blinded to the study database and treatment allocation.

angiotensin I = experiment: Serum angiotensin I level at baseline and hour 3, ATHOS-3 patients; conditions: hour 3; IQR 13.4%-65.1% reduction; placebo 8.1%
Description: as §1, §2, §3

[1] = test system: patients with catecholamine-resistant vasodilatory shock; experiment: 28-day mortality / survival in ATHOS-3 by baseline serum renin; conditions: for Hazard Ratio (95% CI), mortality, treatment arm: patients with elevated baseline renin only; for unstratified hazard ratio, 28-day mortality, vs placebo: renin above study population median (high renin), N = 128, 95% CI 0.35-0.88
Description: as §1, §2
(§4) Descriptive statistics with 95% confidence intervals (CIs) were used to summarize data according to treatment group. Differences between treatment groups were identified using the Wilcoxon rank-sum test or analysis of variance for continuous or ordinal variables and the chi-square or Fisher's exact test for discrete variables. Time-to-event data was summarized, including survival, using Kaplan-Meier estimates and compared them by log-rank test. Hazard ratios (HRs) are estimated from a proportional hazards model. A two-sided alpha level of 0.05 was used to test for differences in treatment outcomes without adjustments for multiplicity. Correlation coefficients were calculated for renin versus angiotensin I and the angiotensin I/II ratio. Correlation coefficients were also calculated for renin versus angiotensin I for hour 0 (baseline) and hour 3. For multivariate analyses, covariates that were utilized for study stratification (Model A), covariates that were different between groups defined by P<0.10 (Model B), and statistically significant covariates from Models A and B were included in a multivariate logistic regression (Model C). The dichotomized baseline covariates that were utilized for study stratification were MAP <65 mm Hg and APACHE II score >30.

[2] = test system: patients with catecholamine-resistant vasodilatory shock; experiment: Ventilator liberation, RRT liberation and ICU discharge in ATHOS-3 by baseline renin
Description: as §1, §2, §4

[3] = test system: patients with catecholamine-resistant vasodilatory shock; experiment: MAP response at hour 3 by baseline renin, ATHOS-3
Description: as §1, §2

patients with severe AKI = experiment: Renal recovery in patients with severe AKI by serum renin levels, ATHOS-3; conditions: first 7 days
Description: as §1, §2
as §4, with “For multivariate analyses, covariates that were utilized for study stratification (Model A), covariates that were different between groups defined by P<0.10 (Model B), and statistically significant covariates from Models A and B were included in a multivariate logistic regression (Model C). The dichotomized baseline covariates that were utilized for study stratification were MAP <65 mm Hg and APACHE II score >30.” left out

[4] = test system: patients with catecholamine-resistant vasodilatory shock; experiment: Change in CV and total SOFA score from baseline to hour 48, ATHOS-3
Description: as §1, §2, §4

[5] = test system: patients with catecholamine-resistant vasodilatory shock; experiment: Adverse events, ATHOS-3 patients with elevated baseline renin; conditions: patients with elevated renin concentrations at baseline
Description: Safety was evaluated by assessment of treatment-emergent adverse events, serious adverse events, and adverse event-related drug discontinuations. Data were analyzed with the use of SAS software, version 9.4 (SAS Institute, Cary, N.C.) and R version 3.5.3. (R Foundation).

[6] = renin above study population median, N = 55
[7] = renin above study population median, N = 55, listed as Angiotensin II
[8] = renin below study population median
[9] = renin below study population median, N = 64

Asp-Arg-Val-Tyr-Ile-His-Pro-Phe [angiotensin II]
median reduction in renin concentration (serum renin; 3 hours after initiation of therapy, IQR 37.9%-66.5% reduction, placebo 14.1%): 54.3%
Renin % Change at Hour 3, Mean (SD) (serum renin; N 102): −45.5 (38.59) ^ %
Renin % Change at Hour 3, Median (range) (serum renin; N 102): −54.8 (−91.1-161.0) %
Renin Change at Hour 3, Mean (SD) (serum renin; N 102): −210.3 (307.43) ^
Renin Change at Hour 3, Median (range) (serum renin; N 102): −99.6 (−1574-496.2)
Hour 3 Renin, Mean (SD) (serum renin; N 103): 231.8 (416.91) ^
Hour 3 Renin, Median (range) (serum renin; N 103): 85.0 (4.0-2739.8)
median reduction in angiotensin I levels (angiotensin I): 40.8%
HR (95% CI), treatment arm, multivariate ([1]; Table 4A whole cohort, full model): 0.77 (0.54-1.08)
HR (95% CI), treatment arm, multivariate ([1]; Table 4A whole cohort, step-wise model): 0.77 (0.54-1.08)
HR (95% CI), treatment arm, multivariate ([1]; Table 4B population below median renin, full model): 1.08 (0.64-1.82)
HR (95% CI), treatment arm, multivariate ([1]; Table 4B population below median renin, step-wise model): 1.11 (0.66-1.86)
HR (95% CI), treatment arm, multivariate ([1]; Table 4C population above median renin, full model): 0.62 (0.39-0.98)
HR (95% CI), treatment arm, multivariate ([1]; Table 4C population above median renin, step-wise model): 0.62 (0.39-0.98)
HR (95% CI), treatment arm, multivariate ([1]; Table 4D whole cohort with treatment-renin interaction, full model): 1.08 (0.64-1.81)
HR (95% CI), Treatment * Renin >= Population Median interaction ([1]; Table 4D whole cohort, full model): 0.54 (0.27-1.09)
HR (95% CI), treatment arm, multivariate ([1]; Table 4D whole cohort, step-wise model): 0.77 (0.54-1.08)
Day 28 mortality ([1]; baseline renin <Pop Median, N = 73): N = 73, 43.9%
Day 28 mortality ([1]; baseline renin >=Pop Median, N = 64): N = 64, 50.1%
HR, mortality sensitivity analysis ([1]; high renin cut-off 2x ULN): 0.69
HR, mortality sensitivity analysis ([1]; high renin cut-off 3x ULN): 0.57
HR, mortality sensitivity analysis ([1]; high renin cut-off 4x ULN): 0.63
HR, mortality sensitivity analysis ([1]; high renin cut-off ULN): 0.76
HR (95% CI), survival, vs placebo ([1]; high renin, AKI subset, N = 62): 0.51 (0.26-0.99), 0.0411
HR (95% CI), survival, vs placebo ([1]; high renin, ARDS subset, N = 41): 0.49 (0.21-1.16), 0.0964
HR (95% CI), survival, vs placebo ([1]; low renin, AKI subset, N = 32): 0.55 (0.19-1.58), 0.2574
HR (95% CI), survival, vs placebo ([1]; low renin, ARDS subset, N = 34): 1.38 (0.59-3.26), 0.4583
HR (95% CI), survival, vs placebo ([1]; low renin, all, N = 127): 1.11 (0.66-1.86), 0.7002
Hazard Ratio (95% CI), mortality, treatment arm ([1]; Model A): 0.58 (0.36-0.93)
Hazard Ratio (95% CI), mortality, treatment arm ([1]; Model B): 0.62 (0.38-0.99)
28-day mortality ([1]; patients with renin above the study population median, N = 55, table gives (95% CI)): 50.9%
28-day mortality ([1]; patients with renin above the study population median, N = 55, table gives (95% CI), listed as Angiotensin II): 51% (39%-65%)
28-day mortality ([1]; patients with renin below the study population median, N = 64): 45% (34%-58%)
unstratified hazard ratio, 28-day mortality, vs placebo ([1]; all): 0.56 and 0.556
unstratified hazard ratio, 28-day mortality, vs placebo ([1]; all, listed as LJPC 501): 0.56 (0.35-0.88), 0.0115
parameter estimate, treatment, Day 28 survival model ([1]; results available data): −0.298
difference in 28-day mortality vs placebo ([1]; serum renin below the study population median): no statistically significant difference
parameter estimate, treatment, Day 28 survival model ([1]; with multiple imputation of missing serum renin): −0.229
RRT Liberation by Day 7 (alive and RRT free) ([2]; renin above study population median): 43%
ICU Discharge by Day 28 [2, 6]: 44%
Ventilator Liberation by Day 7 (alive and vent free) [2, 6]: 28%
ICU Discharge by Day 28 [2, 7]: 44% (32%-58%)
Ventilator Liberation by Day 7 (alive and vent free) [2, 7]: 28% (18%-43%)
RRT Liberation by Day 7 (alive and RRT free) ([2]; renin above study population median, listed as Angiotensin II): 43% (25%-66%)
RRT Liberation by Day 7 (alive and RRT free) [2, 8]: 28% (13%-54%)
ventilator and RRT liberation, ICU discharge: difference between treatment groups [2, 8]: no differences
ICU Discharge by Day 28 [2, 9]: 39% (28%-52%)
Ventilator Liberation by Day 7 (alive and vent free) [2, 9]: 27% (18%-40%)
MAP Response at Hour 3 ([3]; baseline renin <Pop Median, 57/73 patients): 57/73 (78.1%)
MAP Response at Hour 3 ([3]; baseline renin >=Pop Median, 39/64 patients): 39/64 (60.9%)
RR (95% CI), likelihood of renal recovery vs placebo (patients with severe AKI; all patients with severe AKI, N = 105): 2.902 (1.293-6.515)
RR (95% CI), likelihood of renal recovery vs placebo (patients with severe AKI; severe AKI, renin above study median, N = 62): 4.112 (1.376-12.29), 0.0061
RR (95% CI), likelihood of renal recovery vs placebo (patients with severe AKI; severe AKI, renin below study median, N = 32): 2.215 (0.429-11.42), 0.3295
Hour 48 change from baseline in Total SOFA, Mean (SD) ([4]; elevated renin population, N = 54): 1.35±6.032
Hour 48 change from baseline in Total SOFA, Mean (SD) ([4]; elevated renin population, N = 54, listed as LJPC-501): N = 54, 1.35 (6.032)
Hour 48 change from baseline in CV SOFA, Mean (SD) ([4]; elevated renin population, N = 55): −1.56±1.793
Hour 48 change from baseline in CV SOFA, Mean (SD) ([4]; elevated renin population, N = 55, listed as LJPC-501): N = 55, −1.56 (1.793)
Hour 48 change from baseline in Total SOFA, Mean (SD) ([4]; low renin population, N = 62): N = 62, 0.85 (5.524)
Hour 48 change from baseline in CV SOFA, Mean (SD) ([4]; low renin population, N = 64): N = 64, −1.77 (1.716)
change in CV SOFA score compared to placebo ([4]; total ATHOS-3 population, baseline to hour 48): significantly greater
adverse events or serious adverse events vs placebo [5]: no significant difference
